The results in this text go back to patent publication US10329296B2, “Indole derivatives” (Richter Gedeon Nyrt., priority 2015, dated 2019).

For this experiment, the target named is human MCH1 receptor (Homo sapiens, UniProt Q99705). The experiment can be described thus: MCHR1 antagonism functional assay, measuring cytoplasmic calcium concentration ([Ca2+]i).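 Further: human MCH1 AequoScreen cells loaded with calcium-sensitive fluorescent dye, compounds preincubated one hour, then MCH given at its EC80, inhibition of ΔF/F rise relative to DMSO vehicle.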

Each structure is given as a SMILES string. Where a name gives a salt, the structure may show the parent alone.

As usually defined, the IC50 is the concentration needed to halve the response being measured.

Procedure: Evaluation of MCHR1 Antagonism in Functional Assay
Cells: human MCH1 (SLC1) AequoScreen® Cell Line (Perkin Elmer ES-370-A, lot No: M4W-A2)
MCH was dissolved in MilliQ water (1 mM), aliquots were taken from the stock solution, and were kept at −20° C. One aliquot was used only once.
Assay buffer: HBSS+2 mM probenecid, pH=7.4
Measuring of Cytoplasmic Calcium Concentration ([Ca^2+]i):
On the day of measurement the culture medium was removed from the cells and a fluorescent Ca^2+-sensitive dye (FLIPR Calcium 5 kit, Molecular Devices R8186) was added to the cells at a 4× dilution compared to the recommended dilution by the manufacturer, in a volume of 100 μl/well, and cells were incubated at 37° C. for 10 min. […] The vehicle (DMSO, control treatment), or the buffer containing test compounds were added to the cells in a volume of 50 μl/well, and cells were incubated at 37° C. for further 60 min.
1 mM stock solution was made from the agonist in distilled water, this solution was distributed into aliquots, which were kept at −20° C. until use. One aliquot was used only once. Fluorescence was detected before addition of MCH for 20 s, and after addition of MCH for 40 s. MCH was applied at an EC80 concentration, the EC80-values were determined individually for every plate/experiment. For this whole MCH dose-response curves were determined on one part of the plate, 4 parameter sigmoidal curves were fitted to the experimental data by nonlinear regression, MCH EC80 values were derived from the fitted curve. The raw fluorescence data were converted into ΔF/F values (the maximum fluorescence value obtained after addition of MCH was normalized to the baseline fluorescence: ΔF/F=(Fmax−Fbaseline)/Fbaseline). […] IC50 values of the tested compounds were determined by fitting 4 parameter sigmoidal curves to inhibition % data. Data processing, including fitting curves by nonlinear regression, was done by SoftMaxPro software.

As to `O=c1cc(OCc2ccc(Cl)cn2)ccn1-c1ccc2c(c1)c(Cl)c1n2CCN(CCF)CC1`, the IC50 was 15.5 nM.
Regarding `O=c1cc(OCc2ccc(Cl)cn2)ccn1-c1ccc2c(c1)cc1n2CCN(CCF)CC1`, the IC50 turned out to be 10 nM.
For the molecule `O=c1cc(OCc2ccc(F)cn2)ccn1-c1ccc2c(c1)cc1n2CCNCC1` [Example 1, 1-{1H,2H,3H,4H,5H-[1,4]diazepino[1,7-a]indol-9-yl}-4-[(5-fluoropyridin-2-yl)methoxy]-1,2-dihydropyridin-2-one hydrochloride salt], the half-inhibitory concentration (IC50) is 17.6 nM.
For the molecule `COc1ccc(COc2ccn(-c3ccc4c(c3)cc3n4CCNCC3)c(=O)c2)cc1` [Example 2, 1-{1H,2H,3H,4H,5H-[1.4]diazepino[1,7-a]indol-9-yl}-4-[(4-methoxyphenyl)-methoxy]-1,2-dihydropyridin-2-one hydrochloride salt], the IC50 was found to be 32.9 nM.
In the case of `O=c1cc(OCc2ccccc2)ccn1-c1ccc2c(c1)cc1n2CCNCC1` [Example 3, 4-(benzyloxy)-1-{1H,2H,3H,4H,5H-[1,4]diazepino[1,7-a]indol-9-yl}-1,2-dihydropyridin-2-one maleic acid salt], the IC50 stood at 17.7 nM.
On to `O=c1cc(OCc2ccc(Cl)cn2)ccn1-c1ccc2c(c1)cc1n2CCNCC1` [Example 4, 4-[(5-chloropyridin-2-yl)methoxy]-1-{1H,2H,3H,4H,5H-[1,4]diazepino[1,7-a]indol-9-yl}-1,2-dihydropyridin-2-one dihydrochloride salt], for which the 50% inhibitory concentration (IC50) was 9.8 nM.
As for `O=c1cc(OCc2ccc(F)cc2)ccn1-c1ccc2c(c1)cc1n2CCNCC1` [Example 5, 1-{1H,2H,3H,4H,5H-[1,4]diazepino[1,7-a]indol-9-yl}-4-[(4-fluorophenyl)methoxy]-1,2-dihydropyridin-2-one hydrochloride salt], the IC50 was 12 nM.
The figure for `O=c1cc(OCc2ccc(Cl)cc2)ccn1-c1ccc2c(c1)cc1n2CCNCC1` [Example 6, 4-[(4-chlorophenyl)methoxy]-1-{1H,2H,3H,4H,5H-[1,4]diazepino[1,7-a]indol-9-yl}-1,2-dihydropyridin-2-one hydrochloride salt] is 11.9 nM.
To `O=c1cc(OCc2ccccc2F)ccn1-c1ccc2c(c1)cc1n2CCNCC1` [Example 7, 1-{1H,2H,3H,4H,5H-[1,4]diazepino[1,7-a]indol-9-yl}-4-[(2-fluorphenyl)methoxy]-1,2-dihydropyridin-2-one hydrochloride salt] belongs 27.7 nM.
In the case of `O=c1cc(OCc2ccc(C(F)(F)F)cc2)ccn1-c1ccc2c(c1)cc1n2CCNCC1` [Example 8, 1-{1H,2H,3H,4H,5H-[1,4]diazepino[1,7-a]indol-9-il}-4-{[4-(trifluoromethyl)phenyl]methoxy}-1,2-dihydropyridin-2-one hydrochloride salt], the concentration for half-maximal inhibition (IC50) was 123 nM.
Turning to `CN1CCc2cc3cc(-n4ccc(OCc5ccc(F)cn5)cc4=O)ccc3n2CC1` [Example 9, 4-[(5-fluoropyridin-2-yl)methoxy]-1-{3-methyl-1H,2H,3H,4H,5H-[1,4]diazepino[1,7-a]indol-9-yl}-1,2-dihydropyridin-2-one maleic acid salt], the concentration for half-maximal inhibition (IC50) was found to be 14.9 nM.
Consider `CN1CCc2cc3cc(-n4ccc(OCc5ccccc5)cc4=O)ccc3n2CC1` [Example 10, 4-(benzyloxy)-1-{3-methyl-1H,2H,3H,4H,5H-[1,4]diazepino[1,7-a]indol-9-yl}-1,2-dihydropyridin-2-one hydrochloride salt], for which the IC50 was determined as 9.2 nM.
As for `CN1CCc2cc3cc(-n4ccc(OCc5ccc(Cl)cn5)cc4=O)ccc3n2CC1` [Example 11, 4-[(5-chloropyridin-2-yl)methoxy]-1-{3-methyl-1H,2H,3H,4H,5H-[1,4]diazepino[1,7-a]indol-9-yl}-1,2-dihydropyridin-2-one], the IC50 was 9.6 nM.
Regarding `CN1CCc2cc3cc(-n4ccc(OCc5ccc(Cl)cc5)cc4=O)ccc3n2CC1` [Example 12, 4-[(4-chlorophenol)methoxy]-1-{3-methyl-1H,2H,3H,4H,5H-[1,4]diazepino[1,7-a]indol-9-yl}-1,2-dihydropyridin-2-one maleic acid salt], the half-maximal inhibitory concentration (IC50) is 9 nM.
